Read-outs that look alike come from different tables or passages of the source.

We go through 2 compounds from patent US10993957B2 (NuCana plc, priority 2011, dated 2021).

For one data set, the system named is L1210/TK^−. The data set is described as follows: Cytostatic assay, thymidine kinase-deficient L1210/TK^− cells. To be noted: Mus musculus; for IC50: L1210. In kind it is cell-based, murine.
For a further data set, the system named is FM3A/0. Briefly: Cytostatic assay, FM3A/0 cells. In kind it is cell-based. To be noted: Mus musculus, FM3A/0; Table 1; read-out: CC50 FM3A/0. Here is the method: The samples were assayed for biological activity versus a range of tumour cell lines with data recorded in Table 1 below. […] The cell lines employed were L1210/0 (a leukemia cell line), FM3A/0 (a breast cancer cell line), Cem/0 (an acute lymphoblastic leukemia cell line) and HeLa (a cervical cell line).

The next data set has as its system Cem/hEnt-0. Briefly: Cytostatic assay, CEM cells lacking the hEnt1 transporter. The data set is classed as cell-based. Conditions: Homo sapiens, CCRF-CEM, read-out: IC50 Cem/hEnt-0. The source says: Data are mean (±SD) of at least two to four independent experiments. Table 8 identifies the phosphoramidate motif of compounds embodying the present invention, as discussed above with respect to Table 6, but with “Naph” standing for 1-naphthyl.

In the next data set the test system is HeLa/TK^−. The data set is described as follows: Cytostatic assay, HeLa/TK^− cells. The data set is classed as cell-based. Conditions: Homo sapiens, HeLa. The source says: The cell lines employed were L1210/0 (a leukemia cell line), FM3A/0 (a breast cancer cell line), Cem/0 (an acute lymphoblastic leukemia cell line) and HeLa (a cervical cell line).
Data set [1] can be described thus: Stability in buffer at pH 1 by 31P NMR. Conditions: 14 hours. The data set is classed as physicochemical. Here is the method:
The stability of the prodrug CPF-373 towards hydrolysis at pH=1 was studied using in situ ^31P NMR (202 MHz). The ProTide CPF-373 (1) (2.6 mg) was dissolved in MeOD (0.1 mL) after which 0.5 mL buffer (pH=1) (prepared from equal parts of 0.2 M HCl and 0.2 M KCl) was added. Then the sample was transferred into an NMR tube, and a ^31P NMR experiment was performed at 37° C. recording the data every 12 minutes for 14 hours. Data were processed and analysed with the Bruker Topspin 2.1 program.
(§1) A chemical hydrolysis was evaluated under experimental conditions at pH 1 and pH 8 and monitored by ^31P NMR. During the assay (14 h) under acidic conditions (pH 1) only two peaks representing the two diastereoisomers were recorded.

In the next data set the test system is Cem/TK^−. Briefly: Cytostatic assay, thymidine kinase-deficient CEM/TK^− cells. In kind it is cell-based, human. Conditions: Homo sapiens, CEM-TK(-).
Data set [2] in a line: Stability in buffer at pH 8 by 31P NMR. In kind it is physicochemical. Conditions: 14 hours. As for the experimental part: The stability of the prodrug CPF-373 towards hydrolysis at pH=8 was studied using in situ ^31P NMR (202 MHz). The ProTide CPF-373 (1) (4.9 mg) was dissolved in MeOD (0.1 mL) after which 0.5 mL buffer (pH=8) (prepared from a solution of 0.1 M Na2HPO4, which was adjusted by 0.1 M HCl) was added. Then the sample was transferred into an NMR tube, and a ^31P NMR experiment was performed at 37° C. recording the data every 12 minutes for 14 hours. Data were processed and analysed with the Bruker Topspin 2.1 program.
as §1

Data set [3] in a line: Stability in human serum by in situ 31P NMR. In kind it is in vitro ADME. To be noted: 37° C., after 12 hours and 30 minutes. Here is the method:
The stability of the prodrug CPF-373 in the presence of human serum was studied using in situ ^31P NMR (202 MHz). The ProTide CPF-373 (1) (5.0 mg) was dissolved in DMSO (0.05 mL) and D2O (0.15 mL). Then the sample was transferred into an NMR tube, which was inserted in the NMR chamber at 37° C. (with enough solvent to obtain a control NMR reading of the blank). Then 0.3 ml human serum was quickly added to the sample in the NMR tube. NMR experiments were programmed to record data every 15 minutes for 12 hours and 30 minutes. Because of excess noise and poor shimming profiles (most likely due to the biological media and concentration), individual spectra were further processed. After normal Fourier transform processing, each spectrum was deconvoluted (Lorentz-Gauss deconvolution) to reveal solely the frequency and area of spectral peaks without the baseline. Data recorded were processed and analysed with the Bruker Topspin 2.1 program.
Chemical stability studies on the prodrug CPF-373 (1) have been performed by exposing the compound to human serum and to aqueous buffers (pH 1.0 and 8.0) using in situ ^31P NMR. […]
The stability of compound CPF 386 in the presence of human serum was investigated using in situ ^31P NMR. A control ^31P NMR data of compound CPF 386 in DMSO and D2O were recorded. […] The ^31P NMR data were recorded every 15 minutes over 14 h. […]

The mark [4] stands for this setting: Table 3, read-out: IC50 L1210/TK−.
Where [5] appears, read: Table 6, read-out: IC50 L1210/TK^−.

Turning to `O=c1[nH]c(=O)n([C@H]2C[C@H](O)[C@@H](CO)O2)cc1F` [5-FdUrd, 5-fluoro-2′-deoxyuridine, reference compound], the CC50 is 3.1 ± 0.2 µM in the data set on L1210/TK^− (L1210, Table 1, read-out: CC50 L1210/TK^−) and 6.5 ± 5.5 nM in the data set on FM3A/0. The results for the IC50 with L1210/TK^− (setting [4]), in the data set on L1210/TK^− (setting [5]) and in the data set with Cem/hEnt-0 were 3100 nM, 3000 ± 100 nM and 2500 ± 650 nM, respectively.
As to `C[C@H](NP(=O)(OC[C@H]1O[C@@H](n2cc(F)c(=O)[nH]c2=O)CC1O)Oc1cccc2ccccc12)C(=O)OCc1ccccc1` (stereo partly drawn) [CPF 373, 5-Fluoro-2′deoxyuridine-5′-O-[1-naphthyl (benzoxy-L-alaninyl)] phosphate], the CC50 is 2500 ± 1300 nM in the data set on HeLa/TK^− (Table 1, read-out: CC50 HeLa/TK^−) and 59 ± 46 nM in the data set with FM3A/0. Besides, the IC50 with HeLa/TK^− (Table 6, read-out: IC50 HeLa/TK^−) is 2500 ± 1300 nM; in the data set on L1210/TK^− (setting [4]), 27 nM; with L1210/TK^− (setting [5]), 45 ± 27 nM; with Cem/TK^− (Table 3, read-out: IC50 CEM/TK−), 320 nM; in the data set on Cem/TK^− (Table 6, read-out: IC50 Cem/TK^−), 310 ± 60 nM; in the data set on Cem/hEnt-0 it was 600 ± 110 nM. In addition, the “Stability towards hydrolysis at pH 1” value in data set [1] was “full stability”. In addition, in data set [2], the “Stability towards hydrolysis at pH 8” value is “full stability”. Besides, the “unchanged compound after incubation in human serum” value in data set [3] worked out at 73%.
